Test results taken from patent US8304422B2, “Compositions and methods for inhibition of the JAK pathway” (Rigel Pharmaceuticals, Inc., priority 2007, dated 2012).

What follows are molecules tested on BaF3 V617F cells; UKE-1 (assay: Proliferation Assay (Cell Titer-Glo; Example 7)). Conditions: proliferation 72 hours, inhibit JAK2 activity, cell line (BaF3 V617F or UKE-1) not stated.
Assay type: cell-based
Method: BaF3 V617F cells are maintained and plated in RPMI with 10% FBS. Plating density for these cells is 1×10^5 cells/mL.
UKE-1 are maintained and plated in Iscove's DMEM containing 10% FBS, 10% equine serum, 1% penicillin/streptomycin and 1 uM hydrocortisone. Plating density for these cells is 0.4×10^6 cells/mL
The cells were resuspended in a corresponding medium at a required cell density (see above). 100μ of cell suspension was added to each well of a flat bottom 96 well white plate. The compound was serially diluted in DMSO from 5 mM in 3-fold dilutions, and then diluted 1:250 in the RPMI 1640 medium containing 5% FBS and pen/strep. 100 μL of resulting 2× compound solution was added per well in duplicate and the cells were allowed to proliferate for 72 hours at 37° C.
Proliferation was measured using Cell Titer-Glo. The substrate was thawed and allowed to come to room temperature. After removal of top 100 μL of medium from each well, 100 μL of the premixed Cell Titer-Glo reagent was added to each well. The plates were mixed on an orbital shaker for three minutes to induce lysis and incubated at ambient temperature for an additional five minutes to allow the signal to equilibrate. The Luminescence was read on the Wallac Plate Reader.
The results of the ability of the compounds of the invention to inhibit JAK2 activity, when tested in the above assay, are shown in the following Table XI wherein the level of activity (i.e., the IC50) for each compound is indicated in Table XI. The compound numbers in Table XI refers to the compounds disclosed herein as being prepared by the methods disclosed herein: […]

IC50 | Molecule
92 nM | COc1cc(Nc2ncc(C)c(Nc3ccc(CNS(=O)(=O)C4CC4)cc3)n2)cc(C)c1OC [II-197, 5-Methyl-N4-[4-(N-cyclopropylsulfonylamino)methylphenyl]-N2-[3,4-dimethoxy-5-methylphenyl]-2,4-pyrimidinediamine]
57.2 nM | COc1cc(Nc2ncc(Cl)c(Nc3ccc(CNS(=O)(=O)C4CC4)cc3)n2)cc(C)c1OC [II-199, 5-Chloro-N4-[4-(N-cyclopropylsulfonylamino)methylphenyl]-N2-[3,4-dimethoxy-5-methylphenyl]-2,4-pyrimidinediamine]
116 nM | COc1cc(Nc2ncc(C)c(Nc3ccc(CNS(=O)(=O)C4CC4)cc3)n2)cc(Cl)c1OC [II-198, 5-Methyl-N4-[4-(N-cyclopropylsulfonylamino)methylphenyl]-N2-[3,4-dimethoxy-5-chlorophenyl]-2,4-pyrimidinediamine]
276 nM | COc1cc(Nc2ncc(Cl)c(Nc3ccc(CNS(=O)(=O)C4CC4)cc3)n2)cc(Cl)c1OC [II-200, 5-Chloro-N4-[4-(N-cyclopropylsulfonylamino)methylphenyl]-N2-[3,4-dimethoxy-5-chlorophenyl]-2,4-pyrimidinediamine]
2690 nM | Cc1cnc(Nc2ccc(N3CCN(C)CC3)cc2)nc1Nc1ccc2c(c1)[C@H](NS(C)(=O)=O)CC2 [V-14, (1R)-5-Methyl-N2-[4-(4-methyl-1-piperazinyl)phenyl]-N4-[1-(methylsulfonyl)aminoindan-6-yl]-2,4-pyrimidinediamine]
128 nM | COc1cc(Nc2ncc(Cl)c(Nc3ccc(CNS(=O)(=O)C4CC4)cc3)n2)cc(OC)c1OC [II-186, 5-Chloro-N4-[4-(N-cyclopropylsulfonylaminomethyl)phenyl]-N2-[3,4,5-trimethoxyphenyl]-2,4-pyrimidinediamine]
144 nM | COc1c(C)cc(Nc2ncc(C)c(Nc3ccc4c(c3)S(=O)(=O)NCC4)n2)cc1C [VII-10, 5-Methyl-N4-[3,4-dihydro-1,1-dioxide-2H-1,2-benzothiazin-7-yl]-N2-[3,5-dimethyl-4-methoxyphenyl]-2,4-pyrimidinediamine]
733 nM | O=S(=O)(NCc1ccc(Nc2nc(Nc3ccc(CN4CCOCC4)cc3)ncc2Cl)cc1)C1CC1 [II-223, 5-Chloro-N4-[4-(N-cyclopropylsulfonylamino)methylphenyl]-N2-[4-(1-morpholinomethyl)phenyl]-2,4-pyrimidinediamine]
668 nM | Cc1cnc(Nc2ccc(-c3cccnc3)cc2)nc1Nc1ccc2c(c1)[C@H](NS(C)(=O)=O)CC2 [V-12, (1R)-5-Methyl-N4-[1-(methylsulfonyl)aminoindan-6-yl]-N2-[4-(3-pyridinyl)phenyl]-2,4-pyrimidinediamine]
39.4 nM | CCOc1c(C)cc(Nc2ncc(Cl)c(Nc3ccc(CNS(=O)(=O)C4CC4)cc3)n2)cc1C [II-211, 5-Chloro-N4-[4-(N-cyclopropylsulfonylamino)methylphenyl]-N2-[3,5-dimethyl-4-ethoxyphenyl]-2,4-pyrimidinediamine]
378 nM | COc1c(C)cc(Nc2ncc(Cl)c(Nc3cccc(CNS(=O)(=O)C4CC4)c3)n2)cc1C [II-192, 5-Chloro-N4-[3-(N-cyclopropylsulfonylamino)methylphenyl]-N2-[3,5-dimethyl-4-methoxyphenyl]-2,4-pyrimidinediamine]

Continued, molecule first:

Molecule | IC50
Cc1cc(Nc2ncc(Cl)c(Nc3cccc(S(=O)(=O)NC(C)(C)C)c3)n2)ccc1N1C[C@@H]2C[C@H]1CN2C [I-22, 5-Chloro-N4-[(3-(1,1-dimethylethylamino)sulfonyl)phenyl]-N2-[3-methyl-4-[(1S,4S)-5-methyl-2,5-diazabicyclo[2.2.1]hept-2-yl]phenyl]-2,4-pyrimidinediamine] | 549 nM
CCNS(=O)(=O)NCc1ccc(Nc2nc(Nc3ccc(N4CCN(C)CC4)cc3)ncc2Cl)c(C)c1 [II-144, 5-Chloro-N4-[2-methyl-4-(ethylaminosulfonylamino)methylphenyl]-N2-[4-(4-methyl-1-piperazinyl)phenyl]-2,4-pyrimidinediamine] | 549 nM
CCNS(=O)(=O)NCc1ccc(Nc2nc(Nc3cc(OC)c(OC)c(OC)c3)ncc2C)cc1 [II-120, N4-[(4-(Ethylamino)sulfonylamino)methylphenyl]-5-methyl-N2-(3,4,5-trimethoxyphenyl)-2,4-pyrimidinediamine] | 871 nM
5-Chloro-N4-[4-(N-cyclopropylsulfonylamino)methylphenyl]-N2-[2,4-dimethyl-5-chlorophenyl]-2,4-pyrimidinediamine [II-213] | 2490 nM
CN1CCN(c2ccc(Nc3ncc(Cl)c(Nc4ccc(CCNS(=O)(=O)C5CC5)cc4)n3)cc2)CC1 [II-51, 5-Chloro-N4[4-(N-cyclopropylsulfonylamino)ethylphenyl]-N2-[4-(4-methylpiperazino)phenyl]-2,4-pyrimidinediamine] | 1070 nM
Cc1cnc(Nc2ccc(N3CCN(C)CC3)cc2)nc1Nc1ccc(CCNS(=O)(=O)C2CC2)cc1 [II-67] | 717 nM
COc1cc(Nc2ncc(Cl)c(Nc3cccc(S(=O)(=O)NC(C)(C)C)c3)n2)cc(OC)c1OC [I-15, 5-Chloro-N4-[3-(N-tert-butylsulfonyl)phenyl]-N2-[3,4,5-trimethoxyphenyl]-2,4-pyrimidinediamine] | 225 nM
CN1CCC(c2ccc(Nc3ncc(Cl)c(Nc4ccc(CNS(=O)(=O)N(C)C)cc4)n3)cc2)CC1 [II-98, 5-Chloro-N4-[(4-(dimethylamino)sulfonylamino)methylphenyl]-N2-[4-(1-methyl-4-piperidinyl)pheny]-2,4-pyrimidinediamine] | 264 nM
CCNS(=O)(=O)NCc1ccc(Nc2nc(Nc3ccc(N4CCN(C)CC4)c(C)c3)ncc2Cl)c(C)c1 [II-145, 5-Chloro-N4-[2-methyl-4-(ethylaminosulfonylamino)methylphenyl]-N2-[3-methyl-4-(4-methyl-1-piperazinyl)phenyl]-2,4-pyrimidinediamine] | 3980 nM
COc1cc(Nc2ncc(Cl)c(Nc3ccc(CNS(=O)(=O)N(C)C)cc3)n2)cc(C)c1OC [II-91, 5-Chloro-N2-(3,4-dimethoxy-5-methylphenyl)-N4-[(4-(dimethylamino)sulfonylamino)methylphenyl]-2,4-pyrimidinediamine] | 142 nM
Cc1cc(Nc2ncc(Cl)c(Nc3ccc(CNS(N)(=O)=O)cc3)n2)ccc1N1CCN(C)CC1 [II-149, N4-[4-(Aminosulfonylamino)methylphenyl]-5-chloro-N2-[3-methyl-4-(4-methyl-1-piperazinyl)phenyl]-2,4-pyrimidinediamine] | 1040 nM
CCNS(=O)(=O)NCc1ccc(Nc2nc(Nc3ccc(N4CCN(CC)CC4)cc3)ncc2C)cc1 [II-125, N4-[(4-(ethylamino)sulfonylamino)methylphenyl]-N2-[4-(4-ethyl-1-piperazinyl)phenyl]-5-methyl-2,4-pyrimidinediamine] | 512 nM
Cc1cnc(Nc2ccc(N3CCN(C4CC5CCC4C5)CC3)c(F)c2)nc1Nc1ccc(CNS(=O)(=O)C2CC2)cc1 (centres unmarked) [II-78, N-(4-(2-(4-(4-(bicyclo[2.2.1]heptan-2-yl)piperazin-1-yl)-3-fluorophenylamino)-5-methylpyrimidin-4-ylamino)benzyl)cyclopropanesulfonamide] | 371 nM
Cc1cc(Nc2ncc(Cl)c(Nc3ccc(CNS(=O)(=O)NC4CC4)cc3)n2)ccc1N1CCN(C)CC1 [II-168, 5-Chloro-N4-[4-((N-cyclopropylamino)sulfonylamino)methylphenyl]-N2-[3-methyl-4-(4-methyl-1-piperazinyl)phenyl]-2,4-pyrimidinediamine] | 2050 nM
5-Chloro-N4-[(4-(dimethylamino)sulfonylamino)methylphenyl]-N2-[3,4,5-trimethoxyphenyl)-2,4-pyrimidinediamine [II-95] | 250 nM
Cc1cnc(Nc2ccc(N3CCN(C)CC3)cc2)nc1Nc1ccc(CNS(=O)(=O)N(C)C)cc1 [II-104, N4-[(4-(Dimethylamino)sulfonylamino)methylphenyl]-5-methyl-N2-[4-(4-methyl-1-piperazinyl)phenyl]-2,4-pyrimidinediamine] | 349 nM
CC(C)(C)Oc1ccc(Nc2ncc(Cl)c(Nc3ccc(CCNS(=O)(=O)C4CC4)cc3)n2)cc1 [II-47, 5-Chloro-N4[4-(N-cyclopropylsulfonylamino)ethylphenyl]-N2-[4-(2,6-dimethyl-ethoxy)phenyl]-2,4-pyrimidinediamine] | 487 nM
Cc1cnc(Nc2ccc(N3CCN(S(C)(=O)=O)CC3)cc2C(F)(F)F)nc1Nc1ccc(CCNS(=O)(=O)C2CC2)cc1 [II-72] | 18300 nM
Cc1cnc(Nc2cc(C)c(OC(C)C)c(C)c2)nc1Nc1ccc(CNS(=O)(=O)NC2CC2)cc1 [II-164, N4-[4-((N-Cyclopropylamino)sulfonylamino)methylphenyl]-N2-[3,5-dimethyl-4-(1-methyl)ethoxyphenyl]-5-methyl-2,4-pyrimidinediamine] | 94.8 nM
CCc1cnc(Nc2cc(C)c(OC)c(C)c2)nc1Nc1ccc(CNS(=O)(=O)C2CC2)cc1 [II-81, N4-[4-(N-Cyclopropylsulfonylamino)methylphenyl]-N2-(3,5-dimethyl-4-methoxyphenyl)-5-ethyl-2,4-pyrimidinediamine] | 1100 nM
5-Chloro-N4-[4-(N-cyclopropylsulfonylamino)methylphenyl]-N2-[4-(N-methylpiperizin-4-yl)phenyl]-2,4-pyrimidinediamine [II-188] | 224 nM
